Data taken from patent US12128047B2, “TLR7 agonist and pharmaceutical combination thereof for treating lung cancer” (CHIA TAI TIANQING PHARMACEUTICAL GROUP CO., LTD., priority 2018, dated 2024).

Tested on: LLC (Lewis Lung Cancer) tumor
Assay: Antitumor experiment in LLC mouse model (subcutaneous xenograft LLC tumor)
Type: in vivo, C57BL/6 mice
Conditions: i.g.; for TV (mm^3) on day 0 Mean ± SD: day 0 (grouping, before dosing from day 1); for TGI (%): from tumor weight on day 15 vs control group
Protocol: In Example 1, the TLR7 agonist was
[drawing 58] and anlotinib was anlotinib dihydrochloride.
LLC (Lewis Lung Cancer) Mice: subcutaneously grafted tumor cells of lung cancer (concentration: 2×10^6/mL×0.2 mL/mouse) were inoculated into C57BL/6 mice at the right side armpit (the site to be inoculated was shaved before inoculating) in a sterile environment, and passaged using a block insertion method. The C57BL/6 mice were female and 16-18 g in weight, and the breeding environment was SPF level. The diameter of the C57BL/6 xenograft tumor was measured using a vernier caliper, and the animals were randomly divided into five groups when the tumors grew to 100-300 mm^3: • i. Control group (blank control); • ii. Monotherapy group: anlotinib 5 mg/kg/d (positive control), with normal saline as a vehicle; • iii. Monotherapy group: TLR7 agonist 20 mg/kg, t.i.w., with ethanol/Tween 80 (v:v=1:1) as a vehicle; • iv. Monotherapy group: anlotinib 1 mg/kg/d, with normal saline as a vehicle; and • v. Combination therapy group: TLR7 agonist 20 mg/kg, t.i.w., and anlotinib 1 mg/kg/d.
The mice in the control group and monotherapy groups were administered in a volume of 10 mL/kg, and the mice in the combination therapy group were administered with two drugs simultaneously, each in a volume of 10 mL/kg. Weights and diameter of the tumor were measured every three days, and the behavior of mice was observed daily.
Mice were divided into groups on day 0, with 12 in the control group and 6 in each of the remaining groups. The drugs were administered intragastrically (i.g.) from day 1. The treatment was discontinued on day 12. During the experiment, the tumor volume was measured on days 0, 3, 6, 9, 12 and 15, and the tumors were removed and weighed on day 15, i.e., at the end of experiment.
The tumor volume and the tumor growth inhibition were calculated using the following formulae: Tumor volume (TV)=(L×W^2)/2. Tumor growth inhibition (TGI)=(1−tumor weight in the treatment group/tumor weight in the control group)×100%.

Compound | TV (mm^3) on day 0 Mean ± SD (anlotinib 1 mg/kg/d × 11 d) [mm^3] | TV (mm^3) on day 12 Mean ± SD (anlotinib 1 mg/kg/d × 11 d) [mm^3] | TV (mm^3) on day 15 Mean ± SD (anlotinib 1 mg/kg/d × 11 d) [mm^3] | TGI (%) (anlotinib 1 mg/kg/d × 11 d) | TV (mm^3) on day 0 Mean ± SD (anlotinib 5 mg/kg/d × 11 d, female C57BL/6 mice with LLC tumor) [mm^3] | TV (mm^3) on day 12 Mean ± SD (anlotinib 5 mg/kg/d × 11 d) [mm^3] | TV (mm^3) on day 15 Mean ± SD (anlotinib 5 mg/kg/d × 11 d) [mm^3] | TGI (%) (anlotinib 5 mg/kg/d × 11 d) | TV (mm^3) on day 0 Mean ± SD (TLR7 agonist 20 mg/kg, t.i.w.) [mm^3] | TV (mm^3) on day 12 Mean ± SD (TLR7 agonist 20 mg/kg, t.i.w.) [mm^3] | TV (mm^3) on day 15 Mean ± SD (TLR7 agonist 20 mg/kg, t.i.w.) [mm^3] | TGI (%) (TLR7 agonist 20 mg/kg, t.i.w.) | growth of LLC tumor (result in words) (TLR7 agonist alone, 20 mg/kg, t.i.w., summary of Table 1)
COc1cc2c(Oc3ccc4[nH]c(C)cc4c3F)ccnc2cc1OCC1(N)CC1 [Anlotinib, 1-[[[4-(4-fluoro-2-methyl-1H-indol-5-yl)oxy-6-methoxyquinolin-7-yl]oxy]methyl]cyclopropylamine] | 213.25 ± 39.34 | 2697.21 ± 747.99 | 4114.08 ± 1213.40 | 13.5 | 213.47 ± 38.16 | 1393.38 ± 532.59 | 1811.75 ± 736.45 | 63.4 |  |  |  |  | 
CCCCOc1nc(N)c2[nH]cc(Cc3ccc(CN4CCCC4)cc3)c2n1 [TLR7 agonist] |  |  |  |  |  |  |  |  | 212.98 ± 47.17 | 2353.68 ± 663.83 | 3257.62 ± 577.45 | 30.1 | can inhibit the growth of LLC tumor
